Results taken from patent US20100280061A1, “NOVEL ANALGESIC THAT BINDS FILAMIN A” (priority 2009, published 2010).

Legend:
[1] = molecular target: Bn-VAKGL pentapeptide of filamin A (FLNA) (Homo sapiens, UniProt P21333); experiment: FITC-NLX-based FLNA screening assay (FLNA peptide binding assay); conditions: 10 nM FITC-NLX; for Percent inhibition of FITC-NLX binding, 0.01 μM: 0.01 μM compound; for Percent inhibition of FITC-NLX binding, 0.1 μM: 0.1 μM compound; for Percent inhibition of FITC-NLX binding, 1 μM: 1 μM compound
Description: The final assay volume is 100 μl.
Compounds are tested in triplicate or quadruplicate.

mu opiate receptor (MOR) = molecular target: T1, mu opiate receptor (MOR) (Rattus norvegicus, UniProt P33535); experiment: [35S]GTPγS binding assay using striatal membranes (MOR agonist activity); format: biochemical; parameters: MOR agonist activity, [35S]GTPγS binding to Gαo, 0.1 μM / MOR agonist activity, [35S]GTPγS binding to Gαo, 1 μM / MOR agonist activity, [35S]GTPγS binding to Gαo, 1 μM + BFNA: reference not given here; conditions: for MOR agonist activity, [35S]GTPγS binding to Gαo, 0.1 μM: 0.1 μM compound; for MOR agonist activity, [35S]GTPγS binding to Gαo, 0.1 μM / MOR agonist activity, [35S]GTPγS binding to Gαo, 1 μM: striatal membranes; for MOR agonist activity, [35S]GTPγS binding to Gαo, 1 μM + BFNA: 1 μM compound + 1 μM β-funaltrexamine; for MOR agonist activity, [35S]GTPγS binding to Gαo, 1 μM: 1 μM compound
T1 construct: from tissue; host or cells: striatal tissue (membrane preparation)
Description: To assess the mu opiate receptor (MOR) agonist activity of positive compounds from the FLNA screening, compounds were tested in a [^35S]GTPγS binding assay using striatal membranes. Our previous study has shown that in striatal membranes, activation of MOR leads to an increase in [^35S]GTPγS binding to Gαo (Wang et al., 2005 Neuroscience 135:247-261).
Striatal tissue was homogenized in 10 volumes of ice cold 25 mM HEPES buffer, pH 7.4, which contained 1 mM EGTA, 100 mM sucrose, 50 μg/ml leupeptin, 0.04 mM PMSF, 2 μg/ml soybean trypsin inhibitor and 0.2% 2-mercaptoethanol. The homogenates were centrifuged at 800×g for 5 minutes and the supernatants were centrifuged at 49,000×g for 20 minutes. The resulting pellets were suspended in 10 volume of reaction buffer, which contained 25 mM HEPES, pH 7.5, 100 mM NaCl, 50 μg/ml leupeptin, 2 μg/ml soybean trypsin inhibitor, 0.04 mM PMSF and 0.02% […].
The resultant striatal membrane preparation (200 μg) was admixed and maintained (incubated) at 30° C. for 5 minutes in reaction buffer as above that additionally contained 1 mM MgCl2 and 0.5 nM [^35S]GTPγS (0.1 μCi/assay, PerkinElmer Life and Analytical Sciences) in a total volume of 250 μl and continued for 5 minutes in the absence or presence of 0.1-10 μM of an assayed compound of interest. The reaction was terminated by dilution with 750 μl of ice-cold reaction buffer that contained 20 mM MgCl2 and 1 mM EGTA and immediate centrifugation at 16,000×g for 5 minutes.
The resulting pellet was solubilized by sonicating for 10 seconds in 0.5 ml of immunoprecipitation buffer containing 0.5% digitonin, 0.2% sodium cholate and 0.5% NP-40. Normal rabbit serum (1 μl) was added to 1 ml of lysate and incubated at 25° C. for 30 minutes. Nonspecific immune complexes were removed by incubation with 25 μl of protein A/G-conjugated agarose beads at 25° C. for 30 minutes followed by centrifugation at 5,000×g at 4° C. for 5 minutes. The supernatant was divided and separately incubated at 25° C. for 30 minutes with antibodies raised against Gαo proteins (1:1,000 dilutions).
The immunocomplexes so formed were collected by incubation at 25° C. for 30 minutes with 40 μl of agarose-conjugated protein A/G beads and centrifugation at 5,000×g at 4° C. for 5 minutes. The pellet was washed and suspended in buffer containing 50 mM Tris-HCl, pH 8.0, and 1% NP-40. The radioactivity in the suspension was determined by liquid scintillation spectrometry. […] DAMGO (H-Tyr-D-Ala-Gly-N-MePhe-Gly-OH; 1 or 10 μM) was used as a positive control.

[2] = tested on: MOR-Gs/olf and MOR-Go coupling; experiment: Relative Gs/Go switching in organotypic striatal slice cultures (MOR-G protein coupling); format: cell-based, rat; conditions: 7 days of twice daily 1-hour exposures, organotypic striatal slice cultures
Description: The experiments described herein were carried out on organotypic striatal slices from male Sprague Dawley rats (200 to 250 g) purchased from Taconic (Germantown, N.Y.). Rats were housed two per cage and maintained on a regular 12-hour light/dark cycle in a climate-controlled room with food and water available ad libitum and sacrificed by rapid decapitation. All data are presented as mean±standard error of the mean. Treatment effects were evaluated by two-way ANOVA followed by Newman-Keul's test for multiple comparisons. Two-tailed Student's t test was used for post hoc pairwise comparisons. The threshold for significance was p<0.05.
Striatal slices ([…]) were prepared using a Mcllwain tissue chopper (Mickle Laboratory Engineering Co., Surrey, UK). Slices were carefully transferred to sterile, porous culture inserts (0.4 μm, Millicell-CM) using the rear end of a glass Pasteur pipette. Each culture insert unit contained 2 slices and was placed into one well of the 12-well culture tray. […] The pH value was adjusted to 7.2 with HEPES buffer.
Cultures were first incubated for 2 days to minimize the impact of injury from slice preparation. Incubator settings throughout the experiment were 36° C. with 5% CO2.
Slices were returned to culture medium with normal serum after each drug exposure. Tissues were harvested 16 hours after the last drug exposure by centrifugation.
For determination of MOR-G protein coupling, slices were homogenized to generate synaptic membranes. […] Following centrifugation, striatal membrane lysates were immunoprecipitated with immobilized anti-Gαs/olf or -Gαo conjugated with immobilized protein G-agarose beads. The level of MOR in anti-Gαs/olf or -Gαo immunoprecipitates was determined by Western blotting using specific anti-MOR antibodies.

T1 sequence (P33535 whole entry): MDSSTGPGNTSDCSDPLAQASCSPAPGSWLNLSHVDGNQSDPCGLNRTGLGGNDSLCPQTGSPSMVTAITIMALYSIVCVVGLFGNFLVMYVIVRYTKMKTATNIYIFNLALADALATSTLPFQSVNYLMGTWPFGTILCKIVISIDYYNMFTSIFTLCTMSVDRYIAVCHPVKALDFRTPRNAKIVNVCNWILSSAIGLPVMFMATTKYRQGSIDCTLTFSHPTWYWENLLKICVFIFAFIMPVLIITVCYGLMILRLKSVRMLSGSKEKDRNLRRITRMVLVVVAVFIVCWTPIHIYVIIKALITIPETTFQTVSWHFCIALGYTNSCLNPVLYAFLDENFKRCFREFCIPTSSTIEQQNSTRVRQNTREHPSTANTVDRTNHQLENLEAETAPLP

**Q.** Which results are given for `COc1cc(CC(=O)CC2c3c(cc4c(c3OC)OCO4)CC[N+]2(C)C)cc(OC)c1OC` (stereo not shown) [B0008]?
**A.** Percent inhibition of FITC-NLX binding, 0.01 μM [1]: 35.5%; Percent inhibition of FITC-NLX binding, 0.1 μM [1]: 40.3%; Percent inhibition of FITC-NLX binding, 1 μM [1]: 52.8%; MOR agonist activity, [35S]GTPγS binding to Gαo, 0.1 μM (mu opiate receptor (MOR)): 148.3%; MOR agonist activity, [35S]GTPγS binding to Gαo, 1 μM + BFNA (mu opiate receptor (MOR)): 46.0%; MOR agonist activity, [35S]GTPγS binding to Gαo, 1 μM (mu opiate receptor (MOR)): 264.1%

**Q.** `COc1ccc2c3c1O[C@H]1C(=O)CC[C@@]4(O)[C@@H](C2)N(C)CC[C@]314` [Oxycodone, oxycodone, reference compound] was tested. Which “switch of mu opioid receptors from Go to Gs coupling” value [2] did it give?
**A.** Its value is “switch from Go to Gs coupling”.

**Q.** With `COc1cc(OC)cc(C(=O)CC2c3c(cc4c(c3OC)OCO4)CC[N+]2(C)C)c1.[I-]` (stereo not shown) [B0035] as the compound, how does the “Percent inhibition of FITC-NLX binding, 0.01 μM” value [1] read?
**A.** The value was 45.4%.

**Q.** What about the “Percent inhibition of FITC-NLX binding, 0.1 μM” value [1] of the same compound?
**A.** Its value is 44.7%.

**Q.** What about the “Percent inhibition of FITC-NLX binding, 1 μM” value [1] of the same compound?
**A.** The value was 51.0%.

**Q.** What about the “MOR agonist activity, [35S]GTPγS binding to Gαo, 0.1 μM” value (mu opiate receptor (MOR)) of the same compound?
**A.** Its value is 188.0%.

**Q.** What about the “MOR agonist activity, [35S]GTPγS binding to Gαo, 1 μM + BFNA” value (mu opiate receptor (MOR)) of the same compound?
**A.** Its value is 74.2%.

**Q.** What about the “MOR agonist activity, [35S]GTPγS binding to Gαo, 1 μM” value (mu opiate receptor (MOR)) of the same compound?
**A.** The value was 248.7%.

**Q.** How did the “Percent inhibition of FITC-NLX binding, 0.01 μM” value [1] turn out when `COc1cccc(CC(=O)CC2c3c(cc4c(c3OC)OCO4)CC[N+]2(C)C)c1OC` (stereo not shown) [B0038] was run?
**A.** The value was 41.2%.

**Q.** What about the “Percent inhibition of FITC-NLX binding, 0.1 μM” value [1] of the same compound?
**A.** The value was 50.1%.

**Q.** What about the “Percent inhibition of FITC-NLX binding, 1 μM” value [1] of the same compound?
**A.** Its value is 57.0%.

**Q.** What about the “MOR agonist activity, [35S]GTPγS binding to Gαo, 0.1 μM” value (mu opiate receptor (MOR)) of the same compound?
**A.** Its value is 147.5%.

**Q.** And the “MOR agonist activity, [35S]GTPγS binding to Gαo, 1 μM + BFNA” value (mu opiate receptor (MOR))?
**A.** Its value is 117.1%.

**Q.** And the “MOR agonist activity, [35S]GTPγS binding to Gαo, 1 μM” value (mu opiate receptor (MOR))?
**A.** The value was 205.3%.

**Q.** What does the source list for `COc1c2c(cc3c1C(CC(=O)Cc1ccc(Br)cc1)[N+](C)(C)CC3)OCO2` (stereo not shown) [B0011]?
**A.** Percent inhibition of FITC-NLX binding, 0.01 μM [1]: 40.9%; Percent inhibition of FITC-NLX binding, 0.1 μM [1]: 50.3%; Percent inhibition of FITC-NLX binding, 1 μM [1]: 55.8%; MOR agonist activity, [35S]GTPγS binding to Gαo, 0.1 μM (mu opiate receptor (MOR)): 158.6%; MOR agonist activity, [35S]GTPγS binding to Gαo, 1 μM + BFNA (mu opiate receptor (MOR)): 78.0%; MOR agonist activity, [35S]GTPγS binding to Gαo, 1 μM (mu opiate receptor (MOR)): 212.6%

**Q.** Which results are given for `COc1ccc(C(=O)CC2c3c(cc4c(c3OC)OCO4)CC[N+]2(C)C)c(O)c1.[I-]` (stereo not shown) [B0033]?
**A.** Percent inhibition of FITC-NLX binding, 0.01 μM [1]: 42.1%; Percent inhibition of FITC-NLX binding, 0.1 μM [1]: 46.8%; Percent inhibition of FITC-NLX binding, 1 μM [1]: 49.4%; MOR agonist activity, [35S]GTPγS binding to Gαo, 0.1 μM (mu opiate receptor (MOR)): 149.3%; MOR agonist activity, [35S]GTPγS binding to Gαo, 1 μM + BFNA (mu opiate receptor (MOR)): 41.9%; MOR agonist activity, [35S]GTPγS binding to Gαo, 1 μM (mu opiate receptor (MOR)): 188.9%
